Drawing on patent US20250059164A1, “IRAK DEGRADERS AND USES THEREOF” (Kymera Therapeutics, Inc., priority 2023, published 2025), this text covers DC50 for 34 compounds.

In the assay the target is T1, IRAK4 (Homo sapiens, UniProt Q9NWZ3).
T1 construct: endogenous in cells; host or cells: OCI-LY10
T1 sequence (Q9NWZ3 1-460): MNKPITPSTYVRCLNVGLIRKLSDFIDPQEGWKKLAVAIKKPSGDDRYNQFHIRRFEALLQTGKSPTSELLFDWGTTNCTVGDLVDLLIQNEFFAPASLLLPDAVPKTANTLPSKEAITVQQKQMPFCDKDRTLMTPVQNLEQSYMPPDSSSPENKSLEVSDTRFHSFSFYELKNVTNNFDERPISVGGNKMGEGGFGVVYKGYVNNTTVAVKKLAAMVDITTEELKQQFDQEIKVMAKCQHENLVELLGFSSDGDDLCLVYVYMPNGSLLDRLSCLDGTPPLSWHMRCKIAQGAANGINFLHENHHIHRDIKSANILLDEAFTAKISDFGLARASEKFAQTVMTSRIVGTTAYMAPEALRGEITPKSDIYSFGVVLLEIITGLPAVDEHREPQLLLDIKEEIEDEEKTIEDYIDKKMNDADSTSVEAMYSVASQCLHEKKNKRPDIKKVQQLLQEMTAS
As to the kind of experiment: IRAK4 MSD degradation in OCI-LY10. The format is cell-based. The settings on record: OCI-LY10 cells, 24 hrs, Meso Scale Discovery. The method, then: Degradation of IRAK4 in OCI-LY10 was quantitatively measured using Meso Scale Discovery technology. […] Compounds were then added to the assay plates with a final top concentration of 1 to 10 μM in a 1:3 dilution series with total of 8 doses. The assay plates were then incubated for 4 to 24 hours at 37° C. under 5% CO2. […] To prepare MSD assay plates (Meso Scale Discovery Catalog number L15XA-3), the plates were coated with 2 μg/mL capture antibody (mouse Anti-IRAK4 antibody [2H9], ab119942) in PBS, at 40 μL/well. […] Cell lysates were then added to MSD assay plates and the plates were incubated at room temperature for 1 hour. The plates were then washed 3 times with 150 μL/well TBST buffer and 25 μL/well primary detection antibody (rabbit Anti-IRAK4 antibody [Y279], from Abcam. Catalog number ab32511, 1 μg/mL). The assay plates were then incubated at room temperature for 1 hour, washed 3 times with 150 μL/well TBST buffer and 25 μL/well secondary detection antibody, SULFO-TAG anti-rabbit antibody were added (anti-rabbit antibody from Meso Scale Discovery, Catalog number R32AB-1, 1 μg/mL). The assay plates were then incubated at room temperature for 1 hour, washed 3 times with 150 μL/well TBST buffer, and 150 μL/well MSD reading buffer (Meso Scale Discovery catalog number R92TC-2) was added. The plates were then analyzed by a MSD reader (Meso Scale Discovery, Model Quick Plex SQ 120). The data was then analyzed by software Prism 7.0 from GraphPad and the dose-depended IRAK4 degradation were fit using a three-parameter logistic equation to calculate DC50.
The letter codes for IRAK4 DC50 include: A (<0.01 μM); B (0.01 to <0.1 μM); C (0.1 to 0.2 μM); D (>0.2 μM) and E (not tested).

On to `O=C1CC[C@H](c2ccc(N3CC(N4CCN([C@H]5CC[C@H](n6cc(NC(=O)c7cnn8ccc(N9C[C@H]%10C[C@@H]9CO%10)nc78)c(C(F)F)n6)CC5)CC4)C3)cc2Cl)C(=O)N1` [I-124], for which the half-maximal degradation concentration (DC50) was under 10 nM. Next, `COc1cc2nc([C@H]3CC[C@H](CN4CC[C@H](c5cccc6c5n(C)c(=O)n6C5CCC(=O)NC5=O)[C@@H](F)C4)CC3)oc2cc1NC(=O)c1cccc(C(F)(F)F)n1` (single isomer, unassigned) [I-89]: over 200 nM; `Cn1c(=O)n(C2CCC(=O)NC2=O)c2cccc(N3CCN(C[C@H]4CC[C@H](n5cc6cc(NC(=O)c7cncc(C(F)(F)F)n7)ccc6n5)CC4)CC3=O)c21` (stereo partly shown) [I-350]: under 10 nM. Compound `O=C1CCC(Nc2cccc(N3CCN(C[C@H]4CC[C@H](n5cc6cc(NC(=O)c7cccc(C(F)(F)F)n7)ncc6n5)CC4)CC3)c2)C(=O)N1` (stereo partly shown) [I-15] yielded a DC50 of over 200 nM. With `Cn1c(=O)n([C@@H]2CCC(=O)NC2=O)c2cccc([C@@H]3CCN(C[C@H]4CC[C@H](n5cc6cc(NC(=O)c7cncc(C(F)(F)F)n7)ccc6n5)CC4)CC3(F)F)c21` (single isomer, unassigned) [I-381], the DC50 is under 10 nM. `CN1C(=O)CCC(n2c(=O)n(C)c3c(N4CC(N5CCN([C@H]6CC[C@H](n7cc(NC(=O)c8cnn9ccc(N%10C[C@H]%11C[C@@H]%10CO%11)nc89)c(C(F)F)n7)CC6)CC5)C4)c(F)ccc32)C1=O` (stereo partly shown) [I-3] registered a DC50 of over 200 nM.

`CC(C)Oc1cc2nc([C@H]3CC[C@H](CN4CCC(c5ccc6c(c5)n(C)c(=O)n6C5CCC(=O)NC5=O)CC4)CC3)cn2cc1C(=O)Nc1cccn([C@H]2C[C@H]2F)c1=O` (stereo partly shown) [I-37] gave a half-maximal degradation concentration (DC50) of under 10 nM.

`Cn1c(=O)n(C2CCC(=O)NC2=O)c2cccc(N3CCN(C[C@H]4CC[C@H](n5cc6cc(NC(=O)c7cncc(C(F)(F)F)n7)ccc6n5)CC4)C[C@H]3C(F)(F)F)c21` (single isomer, unassigned) [I-325] registered a DC50 of 10 to 100 nM. Consider `CN(c1cccc(N2CCN(C[C@H]3CC[C@H](n4cc5cc(NC(=O)c6cccc(C(F)(F)F)n6)ncc5n4)CC3)CC2)c1)C1CCC(=O)NC1=O` (stereo partly shown) [I-62], for which the DC50 lay within 100 to 200 nM. Next, `COc1cc2nn([C@H]3CC[C@H](CN4CC[C@@H](c5cccc6c5n(C)c(=O)n6C5CCC(=O)NC5=O)[C@H](F)C4)CC3)cc2cc1NC(=O)c1cncc(C#N)c1` (single isomer, unassigned) [I-101]: under 10 nM; `Cn1c(=O)n(C2CCC(=O)NC2=O)c2cccc(N3CCC4(CCN(C[C@H]5CC[C@H](n6cc7cc(NC(=O)c8cncc(C(F)(F)F)n8)c(C(C)(C)O)cc7n6)CC5)CC4(F)F)CC3)c21` (stereo partly shown) [I-354]: under 10 nM.

As for `COc1cc2nn([C@H]3CC[C@H](CN4CC[C@H](c5cccc6c5n(C)c(=O)n6C5CCC(=O)NC5=O)[C@@H](F)C4)CC3)cc2cc1NC(=O)c1cncc(C#N)c1` (single isomer, unassigned) [I-100], the DC50 is under 10 nM.

For `Cc1nn(C2CCC(=O)NC2=O)c2cccc(N3CC(N4CCN([C@H]5CC[C@H](n6cc(NC(=O)c7cnn8ccc(N9C[C@H]%10C[C@@H]9CO%10)nc78)c(C(F)F)n6)CC5)CC4)C3)c12` (stereo partly shown) [I-54], the DC50 is under 10 nM. The result for `CN(C[C@H]1CC[C@H](n2cc3cc(NC(=O)c4cccc(C(F)(F)F)n4)c(C#N)cc3n2)CC1)[C@H]1CCN(c2cccc3c2n(C)c(=O)n3C2CCC(=O)NC2=O)C[C@H]1F` (stereo partly shown) [I-8] reads under 10 nM; that for `O=C1CCC(c2ccc(N3CC(N4CCN([C@H]5CC[C@H](n6cc(NC(=O)c7cnn8ccc(N9CCCC9)nc78)c(C(F)F)n6)CC5)CC4)C3)cc2Cl)C(=O)N1` (stereo partly shown) [I-14], under 10 nM. Next, `C[C@H]1CN(c2ccn3ncc(C(=O)Nc4cn([C@H]5CC[C@H](CN(C)[C@H]6CCN(c7cccc8c7n(C)c(=O)n8C7CCC(=O)NC7=O)C[C@H]6F)CC5)nc4C(F)F)c3n2)CCO1` (stereo partly shown) [I-24]: under 10 nM; `Cn1c(=O)n(C2CCC(=O)NC2=O)c2cccc([C@@H]3CCN(C[C@H]4CC[C@H](n5cc6cc(NC(=O)c7cncc(C#N)c7)c(C(C)(C)O)cc6n5)CC4)CC3(F)F)c21` (stereo partly shown) [I-416]: under 10 nM; `COc1cc2nc([C@H]3CC[C@H](CN(C)[C@@H]4CCN(c5cccc6c5n(C)c(=O)n6C5CCC(=O)NC5=O)C[C@H]4F)CC3)sc2cc1NC(=O)c1cccc(C(F)(F)F)n1` (single isomer, unassigned) [I-98]: 10 to 100 nM. In turn, `COc1ccc2c(c1N1CC[C@H](N(C)C[C@H]3CC[C@H](n4cc(NC(=O)c5cnn6cccnc56)c(C(F)F)n4)CC3)[C@@H](F)C1)n(C)c(=O)n2C1CCC(=O)NC1=O` (single isomer, unassigned) [I-146] returned a DC50 of under 10 nM.

In turn, `Cn1c(=O)n(C2CCC(=O)NC2=O)c2cccc([C@@H]3CCN(C[C@H]4CC[C@H](c5nc6cc(C(C)(C)O)c(NC(=O)c7cncc(C(F)(F)F)n7)cc6o5)CC4)CC3(F)F)c21` (single isomer, unassigned) [I-327] gave a DC50 of under 10 nM. The result for `Cn1c(=O)n(C2CCC(=O)NC2=O)c2cccc(N3CC(OC[C@H]4CC[C@H](n5cc6cc(NC(=O)c7cccc(C(F)(F)F)c7)ccc6n5)CC4)C3)c21` (stereo partly shown) [I-251] reads over 200 nM; that for `Cc1nn(C2CCC(=O)NC2=O)c2cccc([C@H]3CCN(C[C@H]4CC[C@H](n5cc6cc(NC(=O)c7cncc(C(F)(F)F)n7)ncc6n5)CC4)C[C@@H]3F)c12` (single isomer, unassigned) [I-341], 10 to 100 nM; that for `O=C1CCC(Nc2cccc(N3CC(CO[C@H]4CCN(C[C@H]5CC[C@H](n6cc(NC(=O)c7cnn8ccc(N9C[C@H]%10C[C@@H]9CO%10)nc78)c(C(F)F)n6)CC5)C[C@@H]4F)C3)c2)C(=O)N1` (stereo partly shown) [I-1], 100 to 200 nM. `Cn1c(=O)n([C@@H]2CCC(=O)NC2=O)c2cccc(N3CCC4(CCN(C[C@H]5CC[C@H](n6cc7cc(NC(=O)c8cncc(C#N)c8)c(C(C)(C)O)cc7n6)CC5)CC4(F)F)CC3)c21` (single isomer, unassigned) [I-224]: the half-maximal degradation concentration (DC50) is under 10 nM. In turn, `COc1cc2nc([C@H]3CC[C@H](CN(C)[C@@H]4CCN(c5cccc6c5n(C)c(=O)n6C5CCC(=O)NC5=O)C[C@H]4F)CC3)cn2cc1NC(=O)c1cncc(C(F)(F)F)n1` (single isomer, unassigned) [I-317] registered a 50% degradation concentration (DC50) of under 10 nM. Next, `COc1cc2nn([C@H]3CC[C@H](CN(C)[C@@H]4CCN(c5cccc6c5n(C)c(=O)n6C5CCC(=O)NC5=O)C[C@H]4F)CC3)cc2cc1NC(=O)c1cccc(C(F)(F)F)n1` (stereo partly shown) [I-90]: under 10 nM; `Cn1nc(C2CCC(=O)NC2=O)c2cccc([C@@H]3CCN(C[C@H]4CC[C@H](n5cc6cc(NC(=O)c7cncc(C(F)(F)F)n7)ccc6n5)CC4)CC3(F)F)c21` (single isomer, unassigned) [I-379]: under 10 nM; `CN(C[C@H]1CC[C@H](c2cc3cc(NC(=O)c4cncc(C(F)(F)F)n4)ccn3n2)CC1)[C@@H]1CCN(c2cccc3c2n(C)c(=O)n3C2CCC(=O)NC2=O)C[C@H]1F` (single isomer, unassigned) [I-291]: over 200 nM. Next, `CC(C)(O)c1cc2nn([C@H]3CC[C@H](CN4CCN(c5ccc(C6CCC(=O)NC6=O)c(Cl)c5)CC4)CC3)cc2cc1NC(=O)c1cccc(C(F)(F)F)n1` (stereo partly shown) [I-76]: under 10 nM; `CN(C[C@H]1CC[C@H](n2cc(NC(=O)c3cnn4ccc(N5CCCC5)nc34)c(C(F)F)n2)CC1)[C@@H]1CCN(c2cccc3c2n(C)c(=O)n3C2CCC(=O)NC2=O)C[C@H]1F` (stereo partly shown) [I-40]: under 10 nM. Next, `O=C1CCC(Nc2ccc(N3CC(CN4CCN(C[C@H]5CC[C@H](n6cc(NC(=O)c7cnn8ccc(N9C[C@H]%10C[C@@H]9CO%10)nc78)c(C(F)F)n6)CC5)CC4)C3)cc2Cl)C(=O)N1` (stereo partly shown) [I-16]: 10 to 100 nM; `Cn1c(=O)n(C2CCC(=O)NC2=O)c2ccc([C@H]3CCN(C[C@H]4CC[C@H](n5cc6cc(NC(=O)c7cncc(C(F)(F)F)n7)ccc6n5)CC4)C[C@@H]3F)cc21` (single isomer, unassigned) [I-351]: over 200 nM; `Cc1nn(C2CCC(=O)NC2=O)c2ccc(F)c(N3CC(CN4CCN(C[C@H]5CC[C@H](n6cc(NC(=O)c7cnn8ccc(N9C[C@H]%10C[C@@H]9CO%10)nc78)c(C(F)F)n6)CC5)CC4)C3)c12` (stereo partly shown) [I-287]: under 10 nM. The compound `Cc1nn([C@@H]2CCC(=O)NC2=O)c2cccc(N3CC(CN4CCN(C[C@H]5CC[C@H](n6cc(NC(=O)c7cnn8ccc(N9C[C@H]%10C[C@@H]9CO%10)nc78)c(C(F)F)n6)CC5)CC4)C3)c12` [I-87] came in with a half-maximal degradation concentration (DC50) of under 10 nM.

For orientation: DC50 means the concentration giving 50% degradation. A higher DC50 goes with degradation only at high concentration.
